Laboratory results as given in a melting point compilation (Tetko et al.; mined from patent text by program, amines drawn as free bases though some values may be those of a salt).

Row | melting point [°C] | SMILES
1 | > 250 | CC(C)n1nc(-c2sc(N)nc2-c2ccccc2)ccc1=O
2 | 146 to 148 | CC1=CCCC2C1(C)CCC(C)C2(C)Cc1cc(O)ccc1O (stereo not given)
3 | 218 to 220 | COc1ccc(-c2c(-c3ccc(S(C)(=O)=O)cc3)[nH]c3ccccc23)cc1
4 | 154 to 158 | Cc1ccc2c(c1)C1CN(CCCC(=O)c3ccc(F)cc3)CCC1N2 (stereo not given)
5 | 120 | O=C(NCC(=O)OCCC(F)=C(F)F)Nc1ccc(Cl)cc1Cl
6 | 121 to 123 | CCC1CN2C(C)=Nc3c(C)nn(C)c3C2=N1 (stereo not given)
7 | 148 to 151 | CC(C)(C)NC(=O)N1C(=O)[C@H](O)[C@@H]1c1ccccc1
8 | 143 to 144 | CCCc1ccc(-n2nc(Cl)cc2-c2ccc(S(C)(=O)=O)cc2)cc1
9 | 119 to 120 | CC(C)(C)c1cc(CCc2ccccc2NC(=O)NC2CCN(Cc3cc(F)cc(F)c3)CC2)cc(C(C)(C)C)c1O
10 | 115 to 116 | CCSc1ccc(-c2coc3ccc(-c4nnc(C)o4)cc23)cc1F
11 | 116 to 117 | CSCOc1ccc(-c2coc3ccc(-c4nnc(C)o4)cc23)cc1
12 | 170 to 174 | N#Cc1c(-c2ccccc2)cc(-c2ccccc2)nc1N
13 | 176 to 177 | CC(C)[C@H](NC(=O)OCc1ccccn1)C(=O)N[C@@H](Cc1ccccc1)[C@@H](O)C[C@H](Cc1ccccc1)NC(=O)OCc1cncs1
14 | 135 to 136 | COc1c(O)c(C)c(CN2CCN(C(=S)SC)CC2)c(O)c1OC
15 | 226 to 227 | COCCc1nc2c(N)nc3cc(-c4ccccc4)ccc3c2n1CC(C)(C)O
16 | 243 to 244 | Cn1nnnc1Cc1ccc(NC(=O)/C=C/c2cnn(C)c2-c2ccc(F)cc2)cc1
17 | 119 to 120 | Cc1oc(-c2ccccc2)nc1CCC(=O)c1ccc(C=CC=O)cc1
18 | 117 to 120 | OCC1=Cc2cc(Cl)ccc2Sc2sccc21
19 | 128 to 131 | CC(=O)NC1(c2ccc(C(C)=O)cc2)CC1
20 | 59 to 63 | C=C(C(=O)c1ccc(OC)c(Cl)c1Cl)C1CCCC1
21 | 152 to 155 | CCc1sc(-c2cc[nH]n2)c2c1C(=O)CC(C)(C)C2
22 | 134 to 135 | Nc1cc(I)ccc1Nc1cccc(-n2cccn2)c1
23 | 44 to 49 | COC(=O)C1=C(C)NC(C)=C(C(=O)OCCN2CCN(c3ccc(F)cc3)CC2)C1c1cccc(Cl)c1 (stereo not given)
24 | 90 | C#CCn1c(C(F)(F)F)c(CO)c2ccccc21

Row | melting point [°C] | SMILES
25 | 234 to 237 | CC(Sc1ncnc2[nH]cnc12)c1oc2ccc(Br)cc2c(=O)c1-c1ccccc1 (stereo not given)
26 | 158 to 160 | Cn1c(=O)c2c(nc(CCc3cccc(N)c3)n2C)n(C)c1=O
27 | 195 to 196 | O=c1ccn(CCO)c(C(O)c2ccc3c(c2)OCO3)c1OCc1ccccc1 (stereo not given)
28 | 214 to 216 | O=C(Nc1ccc(Cl)cc1)c1cc(Cl)c2cccnc2c1O
29 | 166 to 167 | Cc1ccc(S(=O)(=O)NCCC(C(=O)NO)C2(CC(C)C)CCN(CCc3ccccc3)C2=O)cc1 (stereo not given)
30 | 193 to 194 | COC(=O)c1cccc(NC(=S)Nc2cc(NC(=O)Nc3ccc(Cl)c(Cl)c3)ccc2OC)c1
31 | 204 to 205 | CN1CCN(CCn2c3ccccc3c(=NN=C3NCCS3)c3ccccc32)CC1
32 | 191 | CCOC(=O)/C=C/c1ccc(OCCCS(C)(=O)=O)cc1Oc1ncc(C(F)(F)F)cc1Cl
33 | 113 to 115 | Cc1nc2c(C#N)c(C)nn2c(Cl)c1CCCl
34 | 282 to 284 | N#Cc1ccc2c(c1)Cc1cc(C#N)ccc1-2
35 | 128 | COc1ccc(-c2nc(CC(=O)Cc3ccc(OC(C)=O)c(OC(C)=O)c3)cs2)cc1OC
36 | 92 to 93 | CN(CCCNC(=O)CSc1nc2ccc(N(C)C)nc2s1)Cc1ccc(Cl)c(Cl)c1
37 | 92 to 93 | C=CC(=O)C(CC1CCOCC1)c1ccc(S(=O)(=O)C2CC2)cc1 (stereo not given)
38 | 66 to 77 | Cc1ccc(CN2CCC(OC(=O)c3ccc(C)cc3)CC2)cc1
39 | 180 to 181 | CON(C)C(=O)c1cc2cccc(NS(=O)(=O)c3cccs3)c2[nH]1
40 | > 390 | O=c1[nH][nH]c(=O)c2c(O)c3cccc(Cl)c3nc12
41 | 74 to 76 | Fc1ccc(Cl)c2ncccc12
42 | 147 to 148 | CC(C)(CNc1ccc(C2=NNC(=O)CC2)cc1)NCC(O)COc1ccccc1 (stereo not given)
43 | 195 to 198 | O=S1(=O)Cc2ccc(Cl)cc2C(c2cccc(F)c2)=NN1
44 | 60 to 63 | Cc1ccc(S(=O)(=O)OCC2Cc3cccc(OS(=O)(=O)C(F)(F)F)c3O2)cc1 (stereo not given)
45 | 168 to 171 | CC(=O)N(O)C(C)c1ccc2c(c1)Cc1ccccc1-2 (stereo not given)
46 | 154 | Cc1cc(C)nc([NH+]([O-])C(=O)Cc2ccsc2)c1 (stereo not given)
47 | 95 to 97 | COc1ccc(CN2CCC(NC(=O)OC(C)(C)C)CC2)cc1
48 | 122 to 124 | COc1cnc(CO)cc1OC

Row | melting point [°C] | SMILES
49 | 172 to 173 | O=C(NCc1ccc(Cl)nc1)C(Cl)=NNc1ccc(C(F)(F)F)cc1
50 | 237 to 239 | CC1CCc2cc(C(O)C(C)N3CCC(n4c(=O)[nH]c5ccccc54)CC3)ccc2S1 (stereo not given)
51 | 172 to 175 | Cc1ccc([N+](=O)[O-])c(C(N)=O)c1
52 | 175 | CCOC(=O)CCCN1CCn2nc(C(=O)O)cc2C1=O
53 | 149 to 151 | COC(=O)c1c(C(=O)OC)c(-c2ccccc2)n2c1Cc1ccccc1-2
54 | 114 to 115 | CCOC(=O)c1cc2cc([Si](C)(C)C)ccc2[nH]1
55 | 82 to 85 | O=c1sc(=Nc2ccc(Cl)cc2)n2n1CCCC2
56 | 190 | CC1(C)COc2ccc(S(=O)(=O)n3c(Cc4ccccc4C(=O)O)cc4cc(Cl)ccc43)cc21
57 | 119 to 120 | CC1CC(=O)N(c2ccncc2)C1=O (stereo not given)
58 | 46 to 47 | COc1nc(C2CC2)nc(OC(C)C)c1C=O
59 | 150 to 152 | CCOc1cc(CCNC(=S)Nc2nccs2)ccc1OC
60 | 190 to 192 | O=C(c1ccccc1)c1cccnc1-c1nc(Nc2ccc(Cl)cc2)c2ccccc2n1
61 | 142 | c1cnc(NC2CCN(CC3CCc4ccccc4O3)CC2)nc1 (stereo not given)
62 | 124 to 127 | COc1ccc2c(c1)CCC(c1ccc(F)cc1)C2=O (stereo not given)
63 | 255 to 257 | CC(=O)NC[C@H]1CN(c2ccc(C(=O)c3cc(C#N)c4ccccn34)cc2)C(=O)O1
64 | 160 to 161 | Cc1nc2c(c(N3CCN(CCO)CC3)n1)OC(C)C(=O)N2 (stereo not given)
65 | 148 | O=S1(=O)NC(c2cccc(F)c2)c2ccccc21 (single isomer, unassigned; (+))
66 | 118 to 119 | CCOC(=O)C(C#N)c1ncccc1N (stereo not given)
67 | 169 to 170 | Cc1c(Cl)ccc2c1N=C(c1ccncc1)OC2c1ccc(Br)cc1 (stereo not given)
68 | 188 to 190 | COc1cccc(-c2c[nH]c3ncnc(N)c23)c1
69 | 177 to 182 | CC(C)(C)NCC(O)c1cc(Cl)c(NC(=O)c2ccccc2)c(Cl)c1 (stereo not given)
70 | 44.2 | Cc1ccc([C@@H](O)C(F)(F)F)cc1
71 | 244 to 246 | O=C(Nc1cccc(CN2C(=O)[C@H]3CCC[C@H]3N(C(=O)CN3C(=O)c4ccccc4C3=O)c3ccccc32)c1)c1ccccc1 (relative stereo)
72 | 100 to 102 | Nc1cc(SC2=CCCCC2)ccc1[N+](=O)[O-]

Row | melting point [°C] | SMILES
73 | 206 to 208 | c1ccc2c(c1)Oc1ccccc1-n1nnnc1-2
74 | 133 to 134 | Cc1c(NC(=O)c2cc3c(s2)CCCC3)cccc1-c1cn(C)c(=O)c(Nc2ccc([C@@H](C(=O)N(C)C)N(C)C(C)C)cc2)n1
75 | 213 to 215 | CC(C)OC(=O)c1cc(-n2c(=O)[nH]c3c(c2=O)CCO3)c(F)cc1Cl
76 | 135 to 138 | CSc1ccc2sc3cc(F)ccc3c(=O)c2c1
77 | 132 to 133 | Cc1ccccc1Cc1cccc(-c2ncc3c(n2)CCOC3)n1
78 | 148 to 150 | c1ccc(N2CCN(Cc3n[nH]c4ccccc34)CC2)nc1
79 | 147 to 148 | CNC(=O)c1cccc(NC(=O)Cc2cccc(F)c2)c1
80 | 99 to 100 | COC(=O)c1ncccc1SCc1ccc(OC)cc1
81 | 254 to 255 | Cn1nc(-c2cnc(N)nc2-c2ccccc2)ccc1=O
82 | 169 to 170 | CN(CCCNC(=O)c1cc(Cl)cc2nc3ccccc3nc12)CCCNC(=O)c1cc(Cl)cc2nc3ccccc3nc12
83 | 144 to 147 | COc1ccc2c(c1)nnc1c(C)nc(-c3cc(Cl)ccc3Cl)n12
84 | 183 to 184 | CCCN=C(N)Nc1ccnc(OCCCO)n1
85 | 128 to 130 | COC(=O)c1cccc(-c2cc(CCNC(=O)C3CCC3)c3cc(OC)ccc3c2)c1
86 | 128 | CCOP(=O)(OCC)c1ccc2cccc(-c3cccc4ccccc34)c2n1
87 | 149 to 150 | Nc1ncc(Br)n2nc(SCc3ccccc3)nc12
88 | 210 | O=C1NC(=NC2CCCC2)C(c2ccc3[nH]ccc3c2)N1c1ccc2[nH]cnc2c1 (stereo not given)
89 | 109 to 110 | Cc1nc2c(N)nc3ccccc3c2n1CCCCOCC#Cc1ccccc1
90 | 225 to 229 | COC(=O)C1=C(C)NC(C)=C(c2nnco2)C1c1cccc(Cl)c1Cl (stereo not given)
91 | 174 to 177 | Nc1ccc(C(=O)Cn2c(-c3nonc3NCCC(=O)O)nc3ccccc32)cc1
92 | 213 | Cc1c(C(=O)Nc2ccc(N3CCN(CCCO)CC3)c(C#N)c2)cnn1-c1ccc(Cl)cc1
93 | 121 to 124 | CC(C)c1nc(CO)n(Cc2ccccc2)c1Sc1cc(Cl)cc(Cl)c1

Row | SMILES | melting point [°C]
94 | CN1CCc2cc(O)c(O)c(Sc3ccsc3)c2CC1 | 189 to 191
95 | COC(OC)C(C)NC1=Nc2ccc(Cl)cc2C(c2ccccc2Cl)=NC1 (stereo not given) | 153 to 155
96 | C[C@H]1[C@@H](CO)CCN1c1ccc(C#N)c2sccc12 | 109 to 111
97 | Cn1c(=O)c2c(ncn2CCCN2CC=C(c3c[nH]c4ccc(Br)cc34)CC2)n(C)c1=O | 195
98 | O=C(CCl)OCCCCOC(=O)CCl | 74 to 76.5
99 | CCN1CCC2(CC1)COc1cc3c(cc12)N(C(=O)c1ccc(-c2ccc(-c4noc(C)n4)cc2C)cc1)CC3 | 202 to 204
100 | CCOC(=O)c1cccc(OP(=O)(CCN2CCCNc3c2c(=O)c3=O)Oc2cccc(C(=O)OCC)c2)c1 | 116 to 117
